We go through one molecule from US20190216786A1, “USE OF 2-{4-[(4-{[1-CYCLOPROPYL-3-TETRAHYDRO-2H-PYRAN-4-yl)-1H-PYRAZOL-4yl]OXY} PYRIDINE-2-yl)AMINO]PYRIDIN-2-yl}PROPAN-2-OL IN THE TREATMENT OF CANCER” (Eli Lilly and Company, priority 2016, published 2019).

As usually defined, the NOAEL is the highest tested level that showed no adverse finding.

The nature of data set [1]: in vivo. The arrangement: species or system dogs. The conditions noted are these: dog. An excerpt:
(§1) Due to the cardiac effects observed with daily dosing in preclinical models, intermittent-dosing toxicology studies administering 2-{4-[(4-{[1-cyclopropyl-3-(tetrahydro-2H-pyran-4-yl)-1H-pyrazol-4-yl]oxy}pyridin-2-yl)amino]pyridin-2-yl}propan-2-ol 4-methylbenzenesulfonate for 3 months in dogs and rats were completed to support clinical dosing. The two dosing schedules evaluated were 2 weeks of daily dosing followed by 2 weeks of no dosing (2 weeks on/2 weeks off) or 3 weeks of daily dosing followed by 1 week of no-dosing (3 weeks on/1 week off). […] Margins of safety based on the NOAELs for the 3-month studies support the proposed clinical dose range of 10 to 100 mg in patients.

Data set [2] is described as follows: 3-month intermittent-dosing toxicology study in rats. It counts as in vivo.
Description: as §1

Turning to `CC(C)(O)c1cc(Nc2cc(Oc3cn(C4CC4)nc3C3CCOCC3)ccn2)ccn1` [2-{4-[(4-{[1-cyclopropyl-3-(tetrahydro-2H-pyran-4-yl)-1H-pyrazol-4-yl]oxy}pyridin-2-yl)amino]pyridin-2-yl}propan-2-ol 4-methylbenzenesulfonate], in data set [1], the NOAEL at 3 months came out at 7.5 mg/kg and the adverse effects result was “no adverse effects”. Moreover, the cardiac effects result in data set [2] (rat, 12 mg/kg, 3 cycles of the 3-week-on/1-week-off schedule) was “limited to aortic inflammation and degeneration in a single female animal”. For the same molecule, the “compound-related, adverse effects” value in data set [2] (rats, 3 months, 2-week on/2-week-off dosing schedule) is given as “no compound-related, adverse effects detected”.
